The source of these data is paper PMC8319832, “Fine-Tuning of Alkaline Residues on the Hydrophilic Face Provides a Non-toxic Cationic α-Helical Antimicrobial Peptide Against Antibiotic-Resistant ESKAPE Pathogens” (Frontiers in Microbiology, 2021).

Values after ≈ are worked out from the molar mass of the structure shown. Where a SMILES comes first, the peptide text is derived from it.

The subject of data set [1] is human red blood cells (hRBCs). Description: Hemolytic activity determination. The class given is cell-based. Conditions: peptide 100 μg ml^–1; hRBCs in 0.9% sodium chloride, 37°C, 1 h, OD540, 1% Triton X-100 = 100%; three independent experiments. As to the method:
Fresh human red blood cells (hRBCs) were collected in a sterile borosilicate glass tube covered with sodium citrate as the anticoagulating agent. […] Two-fold dilutions of the peptides were prepared in 0.9% sodium chloride to 100 μl and mixed with equal volumn of hRBC suspension to final peptide concentrations ranging from 12.5 to 200 μg ml^–1. After co-incubation at 37°C for 1 h, the samples were centrifuged (2,000 × g, 4°C, 20 min), and the supernatant (100 μl) was taken for optical density (OD540) measurements (Asample). The hRBCs assayed with 0.9% sodium chloride (Ablank) or 1% Triton X-100 (Apositive) were applied as 0% and 100% hemolysis, respectively. Three independent experiments were performed and the percent hemolysis was calculated according to the following equation ([Yin et al., 2012]; [Li et al., 2016]):
Hemolysis(%)=100*(Asample-Ablank)/(Apositive-Ablank)

The test system of data set [2] is K. pneumoniae ATCC 700603. Description: MIC, broth dilution. The class given is cell-based, Klebsiella pneumoniae. On the procedure:
(§1) All experiments were repeated at least three times.
(§2) To study the influence of physiological ions on the antimicrobial activities of the peptides, The MICs of the peptides were also determined against the standard bacterial strains cultured in MHB containing various salts at their physiological concentrations (150 mM NaCl, 4.5 mM KCl, 1 mM MgCl2, 2 mM CaCl2, 6 μM NH4HCO3, and 4 μM FeCl3) ([Ma et al., 2016]).
Background: In broth dilution the organism is exposed to a series of concentrations in liquid medium.

The subject of a further data set is E. faecium 898. Put plainly: MIC, broth dilution. The class given is cell-based, Enterococcus faecium. Conditions: CLSI broth dilution, MHB, 37°C, 20 h, OD630, at least three repeats; clinical isolate.
Excerpt: as §1

Another data set has as its system A. baumannii ATCC 19606. Description: MIC, broth dilution. The class given is cell-based, Acinetobacter baumannii. On the procedure:
as §1, §2

A further data set concerns K. pneumoniae 9126. Description: MIC, broth dilution. The class given is cell-based, Klebsiella pneumoniae. The following applies: CLSI broth dilution, MHB, 37°C, 20 h, OD630, at least three repeats; clinical isolate, CRE.
Excerpt: as §1

Data set [3] has as its system mouse fibroblast cells L929. Put plainly: Cytotoxicity, CCK-8. Type of data set: cell-based. Conditions: at 40 μg ml^–1, 24 h, CCK-8, OD 450 nm, three independent experiments. As to the method:
(§3) The cytotoxicity of the peptide was determined against mouse fibroblast cells L929 and human embryonic kidney cell 293T (HEK293T). Briefly, the cells were seeded at a density of 8,000 cells per well in a 96-well plate and cultured for 24 h in Dulbecco’s Modified Eagle Medium (DMEM, Gibco) supplemented with 10% fetal bovine serum (FBS, Gibco), 2 mM L-glutamine, 100 U ml^–1 penicillin, […] streptomycin (1% P/S, Invitrogen^TM), and at 37°C in a 5% of CO2 atmosphere. Then, different concentrations of the peptide (0, 10, 20, 30, and 40 μg ml^–1) were added into each well and co-incubated with the cells for 24 h. After 2 h incubation with 10 μM 2-(2-methoxy-4-nitrophenyl)-3-(4-nitrophenyl)-5-(2,4-disulfophenyl)-2H-tetrazolium (CCK-8, Yeasen, China), the cytotoxicity of the peptide was determined by measuring the optical density at 450 nm ([Wu et al., 2014]; [Li et al., 2020]).

Data set [4] concerns human embryonic kidney cell 293T (HEK293T). Description: Cytotoxicity, CCK-8. The following applies: up to 40 μg ml^–1, 24 h, CCK-8, OD 450 nm, three independent experiments. Type of data set: cell-based. As to the method: as §3
Setting [5] is: CLSI broth dilution, MHB, 37°C, 20 h, OD630, at least three repeats, standard strain.
The mark [6] stands for this setting: salt sensitivity test, MHB, control without addition of salt ions.

For the compound `CC[C@H](C)[C@H](NC(=O)[C@H](CCCCN)NC(=O)[C@H](CCCCN)NC(=O)[C@@H](NC(=O)[C@@H](N)Cc1ccccc1)[C@@H](C)CC)C(=O)N[C@@H](C)C(=O)N[C@@H](CCCCN)C(=O)N[C@@H](CC(C)C)C(=O)N[C@@H](CC(C)C)C(=O)N[C@@H](CCCCN)C(=O)N[C@@H](CCCCN)C(=O)N[C@H](C(=O)N[C@@H](Cc1ccccc1)C(N)=O)[C@@H](C)CC` [BmKn2-7K] (H-FIKKIAKLLKKIF-NH2), the “percent hRBC hemolysis” value in data set [1] was 12.2%. In addition, the MIC in data set [2] (setting [5]), in data set [2] (MHB with 4 μM FeCl3), in data set [2] (MHB with 6 μM NH4HCO3), in data set [2] (MHB with 1 mM MgCl2), in data set [2] (MHB with 2 mM CaCl2) and in data set [2] (MHB with 4.5 mM KCl) was 10 µg/mL (≈ 6.29 µM) each time. The MIC – broadly, the smallest concentration in the dilution series that meets the test's criterion for growth inhibition – in data set [2] (MHB with 150 mM NaCl) amounted to 5 µg/mL (≈ 3.15 µM); in data set [2] (setting [6]), 10 µg/mL; against E. faecium 898, 5 µg/mL (≈ 3.15 µM); against A. baumannii ATCC 19606 (setting [5]), 2.5 µg/mL (≈ 1.57 µM); with A. baumannii ATCC 19606 (MHB with 4 μM FeCl3), 5 µg/mL (≈ 3.15 µM); in the data set with A. baumannii ATCC 19606 (MHB with 6 μM NH4HCO3), 5 µg/mL (≈ 3.15 µM). For the same compound, the MIC is 2.5 µg/mL (≈ 1.57 µM) with A. baumannii ATCC 19606 (MHB with 1 mM MgCl2); 2.5 µg/mL (≈ 1.57 µM) against A. baumannii ATCC 19606 (MHB with 2 mM CaCl2); 5 µg/mL (≈ 3.15 µM) in the data set with A. baumannii ATCC 19606 (MHB with 4.5 mM KCl); 2.5 µg/mL (≈ 1.57 µM) in the data set with A. baumannii ATCC 19606 (MHB with 150 mM NaCl); 2.5 µg/mL in the data set with A. baumannii ATCC 19606 (setting [6]); 5 µg/mL (≈ 3.15 µM) against K. pneumoniae 9126. For the same compound, the “cytotoxicity (cell viability)” value in data set [3] is “minor cytotoxicity”; in data set [4], “non-toxic”.
